The source of these data is patent US20220313698A1, “MODULATORS OF CYSTIC FIBROSIS TRANSMEMBRANE CONDUCTANCE REGULATOR” (Vertex Pharmaceuticals Incorporated, priority 2019, published 2022).

The target of assay [1] is T1, CFTR-mediated chloride transport (Homo sapiens, UniProt P13569). The assay can be described thus: Corrector Assay B - membrane potential dye assay (enteroid cells).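 For all read-outs here: methyl oxonol membrane potential fluorescence followed over 15 min after switching to chloride-free buffer with forskolin, 100 µM IBMX and ivacaftor, in presence of CaCC blockers.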 To be noted: for Corrector Assay B % activity: % of chloride transport of triple combination control (3 μM Compound A + 3 μM tezacaftor + 300 nM ivacaftor); for EC50: read-out: Corrector Assay B EC50, human intestinal enteroid cells, 18-24 h incubation, acute 10 μM forskolin + 300 nM ivacaftor.
Method: (§1) Base medium (ADF+++) consisted of Advanced DMEM/Ham's F12, 2 mM Glutamax, 10 mM HEPES, 1 μg/ml penicillin/streptomycin.
(§2) Intestinal enteroid maintenance medium (IEMM) consisted of ADF+++, 1×B27 supplement, 1×N2 supplement, 1.25 mM N-acetyl cysteine, 10 mM Nicotinamide, 50 ng/mL hEGF, 10 nM Gastrin, 1 μg/mL hR-spondin-1, 100 ng/mL hNoggin, TGF-b type 1 inhibitor A-83-01, 100 μg/mL Primocin, 10 μM P38 MAPK inhibitor SB202190.
(§3) Bath 1 Buffer consisted of 1 mM MgCl2, 160 mM NaCl, 4.5 mM KCl, 10 mM HEPES, 10 mM Glucose, 2 mM CaCl2).
(§4) Chloride Free Buffer consisted of 1 mM Magnesium Gluconate, 2 mM Calcium Gluconate, 4.5 mM Potassium Gluconate, 160 mM Sodium Gluconate, 10 mM HEPES, 10 mM Glucose.
(§5) Bath 1 Dye Solution consisted of Bath 1 Buffer, 0.04% Pluronic F127, 20 μM Methyl Oxonol, 30 μM CaCCinh-A01, 30 μM Chicago Sky Blue.
(§6) Chloride Free Dye Solution consisted of Chloride Free Buffer, 0.04% Pluronic F127, 20 μM Methyl Oxonol, 30 μM CaCCinh-A01, 30 μM Chicago Sky Blue.
(§7) Chloride Free Dye Stimulation Solution consisted of Chloride Free Dye Solution, 10 μM forskolin, 100 μM IBMX, and 300 nM Ivacaftor.
(§8) Cells were recovered in cell recovery solution, collected by centrifugation at 650 rpm for 5 min at 4° C., resuspended in TryPLE and incubated for 5 min at 37° C. Cells were then collected by centrifugation at 650 rpm for 5 min at 4° C. and resuspended in IEMM containing 10 μM ROCK inhibitor (RI). The cell suspension was passed through a 40 μm cell strainer and resuspended at 1×10^6 cells/mL in IEMM containing 10 μM RI. Cells were seeded at 5000 cells/well into multi-well plates and incubated for overnight at 37° C., 95% humidity and 5% CO2 prior to assay.
Briefly, cells were washed 5 times in Bath 1 Buffer. Bath 1 Dye Solution was added and the cells were incubated for 25 min at room temperature. Following dye incubation, cells were washed 3 times in Chloride Free Dye Solution. Chloride transport was initiated by addition of Chloride Free Dye Stimulation Solution and the fluorescence signal was read for 15 min. The CFTR-mediated chloride transport for each condition was determined from the AUC of the fluorescence response to acute forskolin and 300 nM N-[2,4-bis(1,1-dimethylethyl)-5-hydroxyphenyl]-1,4-dihydro-4-oxoquinoline-3-carboxamide stimulation. Chloride transport was then expressed as a percentage of the chloride transport following treatment with 3 μM Compound A, 3 μM (R)-1-(2,2-difluorobenzo[d][1,3]dioxol-5-yl)-N-(1-(2,3-dihydroxypropyl)-6-fluoro-2-(1-hydroxy-2-methylpropan-2-yl)-1H-indol-5-yl)cyclopropanecarboxamide and 300 nM acute N-[2,4-bis(1,1-dimethylethyl)-5-hydroxyphenyl]-1,4-dihydro-4-oxoquinoline-3-carboxamide triple combination control (% Activity).

Assay [2] addresses T1, CFTR-mediated chloride transport. The assay can be described thus: Corrector Assay A - membrane potential dye assay (enteroid cells). To be noted: for Corrector Assay A % activity: % of chloride transport of triple combination control (1 μM (14S)-dispiro macrocycle + 3 μM tezacaftor + 300 nM ivacaftor); for EC50: read-out: Corrector Assay A EC50, human intestinal enteroid cells, 18-24 h incubation, acute 10 μM forskolin + 300 nM ivacaftor.
Method: as §1, §2, §3, §4, §5, §6, §7, §8
Briefly, cells were washed 5 times in Bath 1 Buffer. Bath 1 Dye Solution was added and the cells were incubated for 25 min at room temperature. Following dye incubation, cells were washed 3 times in Chloride Free Dye Solution. Chloride transport was initiated by addition of Chloride Free Dye Stimulation Solution and the fluorescence signal was read for 15 min. The CFTR-mediated chloride transport for each condition was determined from the AUC of the fluorescence response to acute forskolin and 300 nM N-[2,4-bis(1,1-dimethylethyl)-5-hydroxyphenyl]-1,4-dihydro-4-oxoquinoline-3-carboxamide stimulation. Chloride transport was then expressed as a percentage of the chloride transport following treatment with 1 μM (14S)-8-[3-(2-{Dispiro[2.0.2.1]heptan-7-yl}ethoxy)-1H-pyrazol-1-yl]-12,12-dimethyl-2λ^6-thia-3,9,11,18,23-pentaazatetracyclo[17.3.1.111,14.05,10]tetracosa-1(22),5,7,9,19(23),20-hexaene-2,2,4-trione, 3 μM (R)-1-(2,2-difluorobenzo[d][1,3]dioxol-5-yl)-N-(1-(2,3-dihydroxypropyl)-6-fluoro-2-(1-hydroxy-2-methylpropan-2-yl)-1H-indol-5-yl)cyclopropanecarboxamide and 300 nM acute N-[2,4-bis(1,1-dimethylethyl)-5-hydroxyphenyl]-1,4-dihydro-4-oxoquinoline-3-carboxamide triple combination control (% Activity).

Usually EC50 stands for the midpoint of the concentration-response curve. In the case of `CC1(C)C[C@@H]2CCC(c3ccccc3)Nc3cccc(n3)S(=O)(=O)NC(=O)c3cccnc3N1C2` (single isomer, unassigned) [Compound 288], in assay [1], the “Corrector Assay B % activity” value is “+++ (+++ is >60%)” and the EC50 lay within 1000 to 3000 nM.
As for `CC1(C)C[C@@H]2CCC(c3ccccc3)Nc3cccc(n3)S(=O)(=O)NC(=O)c3cccnc3N1C2` (single isomer, unassigned) [Compound 289], in assay [1], the “Corrector Assay B % activity” value is on record as “+++ (+++ is >60%)” and the EC50 is under 1000 nM.
Take `CC(C)(C)c1ccc2c(n1)N1C[C@@H](CCC(c3ccc(C(=O)O)cc3)Nc3cccc(n3)S(=O)(=O)NC2=O)CC1(C)C` (single isomer, unassigned) [Compound 290]: in assay [1], the “Corrector Assay B % activity” value is listed as “++ (++ is 30-60%)” and the concentration giving a half-maximal response (EC50) was in the range of 1000 to 3000 nM.
For the molecule `CC(C)(C)c1ccc2c(n1)N1C[C@@H](CCC(c3ccc(C(=O)O)cc3)Nc3cccc(n3)S(=O)(=O)NC2=O)CC1(C)C` (single isomer, unassigned) [Compound 291], in assay [1], the “Corrector Assay B % activity” value is “++ (++ is 30-60%)” and the EC50 was 1000 to 3000 nM.
For `CC(C)(C)c1ccc2c(n1)N1C[C@@H](CCC(c3cncnc3)Nc3cccc(n3)S(=O)(=O)NC2=O)CC1(C)C` (single isomer, unassigned) [Compound 298], in that order: “+++ (+++ is >60%)” and under 1000 nM.
With `CC(C)C1CC[C@@H]2CN(c3nc(-n4ccc(OCCC5(C(F)(F)F)CC5)n4)ccc3C(=O)NS(=O)(=O)c3cccc(n3)N1)C(C)(C)C2` (single isomer, unassigned) [Compound 358], in assay [1], the “Corrector Assay B % activity” value was “+++ (+++ is >60%)” and the EC50 is under 1000 nM.
With `CCCC1(C)CC2CCCNc3cccc(n3)S(=O)(=O)NC(=O)c3ccc(-n4ccc(OCCC5(C(F)(F)F)CC5)n4)nc3N1C2` (single isomer, unassigned) [Compound 365, 12-methyl-12-propyl-8-(3-{2-[1-(trifluoromethyl)cyclopropyl]ethoxy}-1H-pyrazol-1-yl)-2λ^6-thia-3,9,11,18,23-pentaazatetracyclo[17.3.1.111,14.05,10]tetracosa-1(22),5,7,9,19(23),20-hexaene-2,2,4-trione], the “Corrector Assay B % activity” value in assay [1] is “+ (+ is <30%)”.
Consider `CCCC1(C)CC2CCCNc3cccc(n3)S(=O)(=O)NC(=O)c3ccc(-n4ccc(OCCC5(C(F)(F)F)CC5)n4)nc3N1C2` (single isomer, unassigned) [Compound 366, 12-methyl-12-propyl-8-(3-{2-[1-(trifluoromethyl)cyclopropyl]ethoxy}-1H-pyrazol-1-yl)-2λ^6-thia-3,9,11,18,23-pentaazatetracyclo[17.3.1.111,14.05,10]tetracosa-1(22),5,7,9,19(23),20-hexaene-2,2,4-trione], for which, in assay [1], the “Corrector Assay B % activity” value is “+ (+ is <30%)”.
Take `CCCC1(C)CC2CCCNc3cccc(n3)S(=O)(=O)NC(=O)c3ccc(-n4ccc(OCCC5(C(F)(F)F)CC5)n4)nc3N1C2` (single isomer, unassigned) [Compound 368, 12-methyl-12-propyl-8-(3-{2-[1-(trifluoromethyl)cyclopropyl]ethoxy}-1H-pyrazol-1-yl)-2λ^6-thia-3,9,11,18,23-pentaazatetracyclo[17.3.1.111,14.05,10]tetracosa-1(22),5,7,9,19(23),20-hexaene-2,2,4-trione]: in assay [1], the “Corrector Assay B % activity” value is recorded as “+++ (+++ is >60%)” and the 50% effective concentration (EC50) was under 1000 nM.
In the case of `COc1cccc(-c2ccc3c(n2)N2C[C@@H](CC[C@H](c4ccccn4)Nc4cccc(n4)S(=O)(=O)NC3=O)CC2(C)C)c1` [Compound 339], in assay [2], the “Corrector Assay A % activity” value was “+++ (+++ is >60%)” and the 50% effective concentration (EC50) was under 1000 nM.
With `COc1cccc(-c2ccc3c(n2)N2C[C@@H](CC[C@@H](c4ccccn4)Nc4cccc(n4)S(=O)(=O)NC3=O)CC2(C)C)c1` [Compound 340], in assay [2], the “Corrector Assay A % activity” value is listed as “++ (++ is 30-60%)” and the EC50 was in the range of 1000 to 3000 nM.
On to `CC1(C)C[C@@H]2CC[C@H](c3ccccn3)Nc3cccc(n3)S(=O)(=O)NC(=O)c3ccc(-c4c(Cl)cccc4Cl)nc3N1C2` [Compound 341], for which, in assay [2], the “Corrector Assay A % activity” value is given as “+++ (+++ is >60%)” and the EC50 is under 1000 nM.
`CC1(C)C[C@@H]2CC[C@@H](c3ccccn3)Nc3cccc(n3)S(=O)(=O)NC(=O)c3ccc(-c4c(Cl)cccc4Cl)nc3N1C2` [Compound 342]: in assay [2], the “Corrector Assay A % activity” value is recorded as “++ (++ is 30-60%)” and the EC50 is under 1000 nM.
On to `CC1(C)C[C@@H]2CC[C@H](c3ccccn3)Nc3cccc(n3)S(=O)(=O)NC(=O)c3ccc(-c4c(F)cccc4Cl)nc3N1C2` [Compound 343], for which, in assay [2], the “Corrector Assay A % activity” value is recorded as “+++ (+++ is >60%)” and the half-maximal effective concentration (EC50) was under 1000 nM.
Take `CC1(C)C[C@@H]2CC[C@@H](c3ccccn3)Nc3cccc(n3)S(=O)(=O)NC(=O)c3ccc(-c4c(F)cccc4Cl)nc3N1C2` [Compound 344]: in assay [2], the “Corrector Assay A % activity” value is “++ (++ is 30-60%)” and the EC50 was under 1000 nM.
Regarding `CC(C)n1cc(-c2ccc3c(n2)N2C[C@@H](CC[C@@H](c4ccccn4)Nc4cccc(n4)S(=O)(=O)NC3=O)CC2(C)C)cn1` [Compound 345], in assay [2], the “Corrector Assay A % activity” value was “++ (++ is 30-60%)” and the EC50 was under 1000 nM.
Consider `CC(C)n1cc(-c2ccc3c(n2)N2C[C@@H](CC[C@H](c4ccccn4)Nc4cccc(n4)S(=O)(=O)NC3=O)CC2(C)C)cn1` [Compound 346], for which, in assay [2], the “Corrector Assay A % activity” value is “++ (++ is 30-60%)” and the concentration giving a half-maximal response (EC50) was under 1000 nM.
The matching figures for `CC(C)c1ccc(-c2ccc3c(n2)N2C[C@@H](CC[C@H](c4ccccn4)Nc4cccc(n4)S(=O)(=O)NC3=O)CC2(C)C)cc1` [Compound 347]: “+++ (+++ is >60%)” and under 1000 nM.
Turning to `CC(C)c1ccc(-c2ccc3c(n2)N2C[C@@H](CC[C@@H](c4ccccn4)Nc4cccc(n4)S(=O)(=O)NC3=O)CC2(C)C)cc1` [Compound 348], in assay [2], the “Corrector Assay A % activity” value was “++ (++ is 30-60%)” and the EC50 was under 1000 nM.
With `CC1(C)C[C@@H]2CC[C@H](c3ccccn3)Nc3cccc(n3)S(=O)(=O)NC(=O)c3ccc(C4CC4)nc3N1C2` [Compound 349], in assay [2], the “Corrector Assay A % activity” value is reported as “+++ (+++ is >60%)” and the concentration giving a half-maximal response (EC50) is under 1000 nM.
In the case of `CC1(C)C[C@@H]2CCC(c3ccccn3)Nc3cccc(n3)S(=O)(=O)NC(=O)c3ccc(-n4ccc(OCCC5C6(CC6)C56CC6)n4)nc3N1C2` (stereo partly drawn) [Compound 355, (14S)-8-[3-(2-{dispiro[2.0.2.1]heptan-7-yl}ethoxy)-1H-pyrazol-1-yl]-12,12-dimethyl-17-(pyridin-2-yl)-2λ^6-thia-3,9,11,18,23-pentaazatetracyclo[17.3.1.111,14.05,10]tetracosa-1(22),5,7,9,19(23),20-hexaene-2,2,4-trione], in assay [2], the “Corrector Assay A % activity” value was “+++ (+++ is >60%)” and the EC50 is under 1000 nM.
Regarding `CC1(C)CC2CCC(c3ccccn3)Nc3cccc(n3)S(=O)(=O)NC(=O)c3ccc(-n4ccc(OCCC5C6(CC6)C56CC6)n4)nc3N1C2` [Compound 356, (14S)-8-13-(2-{dispiro[2.0.2.11heptan-7-yl}ethoxy)-1H-pyrazol-1-yl]-12,12-dimethyl-17-(pyridin-2-yl)-2λ^6-thia-3,9,11,18,23-pentaazatetracyclo[17.3.1.111,14.05,10]tetracosa-1(22),5,7,9,19(23),20-hexaene-2,2,4-trione], in assay [2], the “Corrector Assay A % activity” value is reported as “+++ (+++ is >60%)” and the EC50 was under 1000 nM.
